# Experimental data as given in patent US9802960B2 (MILLENNIUM PHARMACEUTICALS, INC., priority 2014, dated 2017).
# Biological target: Human VPS34 (Homo sapiens (Human), UniProt Q8NEB9)
# Assay: Human VPS34 enzyme assay (Adapta TR-FRET)
# Type: biochemical
# Details: compound concentration 1.11 μM
# Human VPS34, sequence (Q8NEB9 whole entry): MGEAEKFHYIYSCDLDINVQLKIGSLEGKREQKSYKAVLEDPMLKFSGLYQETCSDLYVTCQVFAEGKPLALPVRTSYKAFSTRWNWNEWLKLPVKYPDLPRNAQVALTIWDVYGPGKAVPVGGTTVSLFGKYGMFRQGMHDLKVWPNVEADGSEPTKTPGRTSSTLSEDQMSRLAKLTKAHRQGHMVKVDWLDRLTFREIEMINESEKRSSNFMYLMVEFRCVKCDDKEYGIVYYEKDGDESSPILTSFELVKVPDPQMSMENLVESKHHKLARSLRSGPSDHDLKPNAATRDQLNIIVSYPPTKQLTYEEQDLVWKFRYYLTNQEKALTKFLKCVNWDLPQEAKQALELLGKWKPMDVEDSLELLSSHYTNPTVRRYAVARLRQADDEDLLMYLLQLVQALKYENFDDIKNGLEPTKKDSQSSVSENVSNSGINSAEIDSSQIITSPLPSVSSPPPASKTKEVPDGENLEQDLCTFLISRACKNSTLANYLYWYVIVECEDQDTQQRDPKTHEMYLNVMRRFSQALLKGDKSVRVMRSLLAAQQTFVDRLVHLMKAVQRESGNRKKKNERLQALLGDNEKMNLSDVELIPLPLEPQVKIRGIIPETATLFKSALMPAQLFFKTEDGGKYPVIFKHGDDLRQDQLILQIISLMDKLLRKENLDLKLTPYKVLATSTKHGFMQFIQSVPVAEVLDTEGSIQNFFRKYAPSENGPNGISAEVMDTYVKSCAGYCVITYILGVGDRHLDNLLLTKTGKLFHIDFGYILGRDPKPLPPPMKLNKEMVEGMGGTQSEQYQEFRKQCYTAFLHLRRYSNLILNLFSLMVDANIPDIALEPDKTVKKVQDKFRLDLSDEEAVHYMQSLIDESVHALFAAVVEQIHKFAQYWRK
row,Compound,Percent Inhibition [%]
1,"CC(=O)Nc1cc(-c2ccnc(Nc3ccnc(C4CC4)n3)c2)cn2nccc12 [Compound I-371, N-(6-{2-[(2-cyclopropylpyrimidin-4-yl)amino]pyridin-4-yl}pyrazolo[1,5-a]pyridin-4-yl)acetamide]",>99

# Same assay, conditions: compound concentration 1.11 μM; read-out: Percent Inhibition
row,Compound,inhibition at 1.11 µM [%]
1,"CC(=O)Nc1cc(-c2cnc(N)c(C(=O)N3CCC(F)(F)C3)c2)ccn1 [Compound I-60, N-{6-amino-5-[(3,3-difluoropyrrolidin-1-yl)carbonyl]-3,4′-bipyridin-2′-yl}acetamide]",> 99
2,"Cc1nccc(Nc2cc(-c3c[n+]([O-])c(Cl)c(NS(=O)(=O)c4ccc(F)cc4F)c3C)ccn2)n1 [Compound I-454, N-(2-chloro-4-methyl-5-{2-[(2-methylpyrimidin-4-yl)amino]pyridin-4-yl}-1-oxidopyridin-3-yl)-2,4-difluorobenzenesulfonamide]",> 99
3,"CC(=O)Nc1cc(-c2cnc(Cl)c(NS(=O)(=O)c3ccc(F)cc3Cl)c2C)ccn1 [Compound I-290, N-(6-chloro-5-{[(2-chloro-4-fluorophenyl)sulfonyl]amino}-4-methyl-3,4′-bipyridin-2′-yl)acetamide]",> 99
4,"CC(=O)Nc1cc(-c2cnc(Cl)c(NS(=O)(=O)c3ccc(Cl)cc3Cl)c2C)ccn1 [Compound I-243, N-(6-chloro-5-{[(2,4-dichlorophenyl)sulfonyl]amino}-4-methyl-3,4′-bipyridin-2′-yl)acetamide]",85
5,"Cc1nccc(Nc2cc(-c3cnc(C)c(NC(=O)Nc4ccccc4)c3)ccn2)n1 [Compound I-439, 1-{6-methyl-2′-[(2-methylpyrimidin-4-yl)amino]-3,4′-bipyridin-5-yl}-3-phenylurea]",69
6,"Cc1ccc(Oc2cc(-c3ccnc(Nc4ccnc(C)n4)c3)cnc2C)nc1 [Compound I-390, 6-methyl-5-[(5-methylpyridin-2-yl)oxy]-N-(2-methylpyrimidin-4-yl)-3,4′-bipyridin-2′-amine]",98
7,"Cc1ncc(-c2ccnc(N)c2)cc1NS(=O)(=O)N(C)C [Compound I-281, N′-(2′-amino-6-methyl-3,4′-bipyridin-5-yl)-N,N-dimethylsulfuric diamide]",40
8,"CC(=O)Nc1cc(-c2cnc(C)c(NS(=O)(=O)c3ccc(C#N)cc3F)c2)ccn1 [Compound I-356, N-(5-{[(4-cyano-2-fluorophenyl)sulfonyl]amino}-6-methyl-3,4′-bipyridin-2′-yl)acetamide]",> 99
9,"CC(=O)Nc1cc(-c2cnc(C)c(NS(=O)(=O)c3ccc(F)cc3F)c2)c(C)cn1 [Compound I-177, N-(5-{[(2,4-difluorophenyl)sulfonyl]amino}-5′,6-dimethyl-3,4′-bipyridin-2′-yl)acetamide]",> 99
10,"CC(=O)Nc1cc(-c2cnc(N)c(S(=O)(=O)NCC3CC3)c2C)ccn1 [Compound I-49, N-{6-amino-5-[(cyclopropylmethyl)sulfamoyl]-4-methyl-3,4′-bipyridin-2′-yl}acetamide]",> 99
11,"CC(=O)Nc1cc(-c2cnc3c(c2)S(=O)(=O)NCCO3)ccn1 [Compound I-484, N-(4-(1,1-dioxido-3,4-dihydro-2H-pyrido[2,3-b][1,4,5]oxathiazepin-8-yl)pyridin-2-yl)acetamide]",92
12,"COC(=O)Nc1cc(-c2cnc(C)c(NS(=O)(=O)c3ccc(F)cc3F)c2)ccn1 [Compound I-195, methyl (5-{[(2,4-difluorophenyl)sulfonyl]amino}-6-methyl-3,4′-bipyridin-2′-yl)carbamate]",> 99
13,"COC(=O)Nc1cc(-c2cncc(C(=O)C3CC3)c2)ccn1 [Compound I-180, methyl[5-(cyclopropylcarbonyl)-3,4′-bipyridin-2′-yl]carbamate]",> 99
14,"CC(=O)Nc1cc(-c2cnc(C)c(NS(=O)(=O)c3ccccc3C(F)(F)F)c2)ccn1 [Compound I-62, N-[6-methyl-5-({[2-(trifluoromethyl)phenyl]sulfonyl}amino)-3,4′-bipyridin-2′-yl]acetamide]",> 99
15,"Cc1c(-c2ccnc(NC(=O)C3CC3(F)F)c2)cnc(Cl)c1NS(=O)(=O)c1ccc(F)cc1F (centres unmarked) [Compound I-254, N-(6-chloro-5-{[(2,4-difluorophenyl)sulfonyl]amino}-4-methyl-3,4′-bipyridin-2′-yl)-2,2-difluorocyclopropanecarboxamide]",77
16,"CC(=O)Nc1cc(-c2cnc(NCC3CC3)c(N)c2)ccn1 [Compound I-53, N-{5-amino-6-[(cyclopropylmethyl)amino]-3,4′-bipyridin-2′-yl}acetamide]",67
17,"COc1ncc(-c2ccnc(NC(C)=O)c2)cc1S(=O)(=O)Nc1cc(F)ccc1F [Compound I-358, N-{5-[(2,5-difluorophenyl)sulfamoyl]-6-methoxy-3,4′-bipyridin-2′-yl}acetamide]",> 99
18,"CC(=O)Nc1cc(-c2cnc(C)c(NS(=O)(=O)c3ccc(F)cc3Cl)c2)ccn1 [Compound I-206, N-(5-{[(2-chloro-4-fluorophenyl)sulfonyl]amino}-6-methyl-3,4′-bipyridin-2′-yl)acetamide]",> 99

row,Compound,inhibition at 1.11 µM [%]
1,"CC(=O)Nc1cc(-c2cnc(N)c(S(=O)(=O)N(C)CC3CC3)c2)ccn1 [Compound I-110, N-{6-amino-5-[(cyclopropylmethyl)(methyl)sulfamoyl]-3,4′-bipyridin-2′-yl}acetamide]",> 99
2,"Cc1nccc(Nc2cc(-c3cnc(C)c(C(=O)N4CCCCC4)c3)ccn2)n1 [Compound I-262, {6-methyl-2′-[(2-methylpyrimidin-4-yl)amino]-3,4′-bipyridin-5-yl}(piperidin-1-yl)methanone]",81
3,"CC(=O)Nc1cc(-c2cnc(C)c(N3CCN(C)S3(=O)=O)c2)ccn1 [Compound I-386, N-[6-methyl-5-(5-methyl-1,1-dioxido-1,2,5-thiadiazolidin-2-yl)-3,4′-bipyridin-2′-yl]acetamide]",96
4,"CC(=O)Nc1cc(-c2cnc(C)c(NS(=O)(=O)c3cc(C)ccc3C)c2)ccn1 [Compound I-178, N-(5-{[(2,5-dimethylphenyl)sulfonyl]amino}-6-methyl-3,4′-bipyridin-2′-yl)acetamide]",> 99
5,"COc1nccc(Nc2cc(-c3cnc(N)c(C(=O)N(C)C45CC(C4)C5)c3)ccn2)n1 [Compound I-230, 6-amino-N-(bicyclo[1.1.1]pent-1-yl)-2′-((2-methoxypyrimidin-4-yl)amino)-N-methyl-[3,4′-bipyridine]-5-carboxamide]",97
6,"COC(=O)Nc1cc(-c2cnc(N)c(S(=O)(=O)N(C)C)c2)ccn1 [Compound I-171, Methyl [6-amino-5-(dimethylsulfamoyl)-3,4′-bipyridin-2′-yl]carbamate]",> 99
7,"CC(=O)Nc1cc(-c2cnc(Cl)c(S(=O)(=O)NC3CCC3)c2)ccn1 [Compound I-438, N-[6-chloro-5-(cyclobutylsulfamoyl)-3,4′-bipyridin-2′-yl]acetamide]",> 99
8,"COc1nccc(Nc2cc(-c3cnc(Cl)c(NS(=O)(=O)c4ccc(F)cc4F)c3C)ccn2)n1 [Compound I-225, N-{6-chloro-2′-[(2-methoxypyrimidin-4-yl)amino]-4-methyl-3,4′-bipyridin-5-yl}-2,4-difluorobenzene sulfonamide]",> 99
9,"Cc1ncc(-c2ccnc(NC(=O)OCC3(C)COC3)c2)cc1NS(=O)(=O)c1ccc(F)cc1F [Compound I-324, (3-methyloxetan-3-yl)methyl (5-{[(2,4-difluorophenyl)sulfonyl]amino}-6-methyl-3,4′-bipyridin-2′-yl)carbamate]",> 99
10,"CC(=O)Nc1cc(-c2cnc(C)c(NS(=O)(=O)N3CCN(C)CC3)c2)ccn1 [Compound I-269, N-(6-methyl-5-{[(4-methylpiperazin-1-yl)sulfonyl]amino}-3,4′-bipyridin-2′-yl)acetamide]",> 99
11,"COc1cc(C)ccc1S(=O)(=O)Nc1cc(-c2ccnc(NC(C)=O)c2)cnc1C [Compound I-142, N-(5-{[(2-methoxy-4-methylphenyl)sulfonyl]amino}-6-methyl-3,4′-bipyridin-2′-yl)acetamide]",> 99
12,"CNc1ncc(-c2ccnc(NC(C)=O)c2)cc1C(=O)N(C)C [Compound I-22, 2′-acetamido-N,N-dimethyl-6-(methylamino)-3,4′-bipyridine-5-carboxamide]",> 99
13,"CC(=O)Nc1cc(-c2cnc(N)c(C(=O)N(C)C)c2)ccn1 [Compound I-149, 2′-acetamido-6-amino-N,N-dimethyl-3,4′-bipyridine-5-carboxamide]",> 99
14,"CC(=O)Nc1cc(-c2cnc(Cl)c(NS(=O)(=O)c3ccc(Cl)cc3F)c2C)ccn1 [Compound I-399, N-(6-chloro-5-{[(4-chloro-2-fluorophenyl)sulfonyl]amino}-4-methyl-3,4′-bipyridin-2′-yl)acetamide]",100
15,"CNc1c(Cl)ncc(-c2ccnc(Nc3ccnc(C)n3)c2)c1C [Compound I-256, 6-chloro-N~5~,4-dimethyl-N~2~′-(2-methylpyrimidin-4-yl)-3,4′-bipyridine-2′,5-diamine]",94
16,"CC(=O)Nc1cc(-c2cnc3[nH]cc(S(=O)(=O)c4ccccc4)c3c2)ccn1 [Compound I-176, N-{4-[3-(phenylsulfonyl)-1H-pyrrolo[2,3-b]pyridin-5-yl]pyridin-2-yl}acetamide]",> 99
17,"Cc1ncc(-c2ccnc(Nc3ccnc(C(F)(F)F)n3)c2)cc1C(=O)N1CCC1 [Compound I-292, azetidin-1-yl(6-methyl-2′-{[2-(trifluoromethyl)pyrimidin-4-yl]amino}-3,4′-bipyridin-5-yl)methanone]",99

# Same assay, conditions: read-out: Percent Inhibition
row,Compound,inhibition at 1.11 µM [%]
1,CC(=O)Nc1cc(-c2cnc(N)c(S(=O)(=O)CC3CC3)c2)ccn1 [Compound I-208],> 99
2,"CC(=O)Nc1cc(-c2cnc(N)c(S(=O)(=O)Cc3ccccc3Cl)c2)ccn1 [Compound I-172, N-{6-amino-5-[(2-chlorobenzyl)sulfonyl]-3,4′-bipyridin-2′-yl}acetamide]",> 99
